Assay results taken from US4397853A, “Isoxazole derivatives” (Yoshitomi Pharmaceutical Industries Ltd., priority 1979, dated 1983).
Read-outs that look alike come from different tables or passages of the source.

System: male dd-mice
Assay: anti-apomorphine activity in mice (inhibition of motor activity after apomorphine, animex)
Type: in vivo
Conditions: Mus musculus, po, read-out: Anti-apomorphine activity ED50 (dose which inhibited the motor activity by 50% as compared with the control)
Experimental: Groups of 5 male dd-mice (20-25 g body weight) each were used. Apomorphine hydrochloride (0.5 mg/kg) was subcutaneously administered 60 minutes after oral administration of test compound. Immediately after the apomorphine treatment, motor activity was determined for 20 minutes by animex. For the control groups, 0.5% methylcellulose solution was administered instead of test compound. The ED50, a dose which inhibited the motor activity by 50% as compared with the control, was determined.

[1] = male dd-mice, p.o., 60 min before apomorphine hydrochloride 0.5 mg/kg s.c., motor activity for 20 min by animex

`O=c1[nH]c2ccccc2n1C1CCN(CC2=NOC(c3ccc(F)cc3)C2)CC1` (stereo not shown) [A, 1-[5-(4-Fluorophenyl)-4,5-dihydroisoxazol-3-ylmethyl]-4-(2-oxo-1-benzimidazolinyl)piperidine] was tested, and the ED50 [1] was 1.7 mg/kg.

For `O=c1[nH]c2cc(F)ccc2n1C1CCN(CC2=NOC(c3ccc(F)cc3)C2)CC1` (stereo not shown) [B, 1-[5-(4-Fluorophenyl)-4,5-dihydroisoxazol-3-ylmethyl]-4-(5-fluoro-2-oxo-1-benzimidazolinyl)piperidine], the ED50 [1] was 2.1 mg/kg.

With `OC1(c2ccc(Cl)cc2)CCN(CC2=NOC(c3ccc(F)cc3)C2)CC1` (stereo not shown) [C, 1-[5-(4-Fluorophenyl)-4,5-dihydroisoxazol-3-ylmethyl]-4-(4-chlorophenyl)-4-hydroxypiperidine] the ED50 was 3.4 mg/kg.

For `CN1CCN(C2=Nc3cc(Cl)ccc3Nc3ccccc32)CC1` [Clozapine, reference compound], the ED50 [1] was 10 mg/kg.
